This passage reports AC50 and EC50 results from ChEMBL document CHEMBL1201862, “PubChem BioAssay data set” (2004).

The target of assay [1] is Cytochrome P450 2C19 (Homo sapiens, UniProt P33261). Nature of the assay: Cytochrome panel assay with activity outcomes. Panel member name: p450-cyp2c19 Compounds with AC50 equal or less than 10 uM are considered active. As to conditions: read-out: AC50. It counts as functional.
The target of assay [2] is T1, Cytochrome P450 1A2 (Homo sapiens, UniProt P05177).
T1 sequence (P05177 whole entry): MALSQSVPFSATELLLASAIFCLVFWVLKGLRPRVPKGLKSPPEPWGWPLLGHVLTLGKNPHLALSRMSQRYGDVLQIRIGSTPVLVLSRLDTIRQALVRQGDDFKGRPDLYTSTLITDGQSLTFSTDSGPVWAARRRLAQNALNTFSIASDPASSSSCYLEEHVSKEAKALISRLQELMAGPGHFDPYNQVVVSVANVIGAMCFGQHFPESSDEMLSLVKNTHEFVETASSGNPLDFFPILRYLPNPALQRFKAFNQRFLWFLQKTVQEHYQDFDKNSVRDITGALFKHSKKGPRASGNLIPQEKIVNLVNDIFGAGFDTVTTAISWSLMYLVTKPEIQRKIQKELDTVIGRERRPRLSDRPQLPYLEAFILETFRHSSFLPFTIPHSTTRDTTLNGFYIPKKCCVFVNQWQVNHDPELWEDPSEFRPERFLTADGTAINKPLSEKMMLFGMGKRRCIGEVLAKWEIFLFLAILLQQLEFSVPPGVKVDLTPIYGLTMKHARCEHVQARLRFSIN

The target of assay [3] is Cytochrome P450 2C9 (Homo sapiens, UniProt P11712).
Cytochrome P450 2C9, sequence (P11712 whole entry): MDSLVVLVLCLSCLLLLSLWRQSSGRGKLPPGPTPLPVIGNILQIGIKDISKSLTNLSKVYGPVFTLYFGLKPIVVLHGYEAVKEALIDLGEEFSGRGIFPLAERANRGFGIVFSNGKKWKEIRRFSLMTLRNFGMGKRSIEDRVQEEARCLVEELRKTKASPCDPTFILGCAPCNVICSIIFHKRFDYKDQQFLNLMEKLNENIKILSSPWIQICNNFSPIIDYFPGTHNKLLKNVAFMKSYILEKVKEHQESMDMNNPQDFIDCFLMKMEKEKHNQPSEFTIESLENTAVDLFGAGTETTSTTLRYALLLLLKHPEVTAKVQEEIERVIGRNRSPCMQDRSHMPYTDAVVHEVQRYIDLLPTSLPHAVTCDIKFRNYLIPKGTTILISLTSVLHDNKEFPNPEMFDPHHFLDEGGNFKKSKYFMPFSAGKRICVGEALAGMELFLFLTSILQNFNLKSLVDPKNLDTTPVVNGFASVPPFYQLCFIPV
The target in assay [4] is T2, Replicative DNA helicase DnaB (Mycobacterium tuberculosis, UniProt P9WMR3).
T2 sequence (P9WMR3 whole entry): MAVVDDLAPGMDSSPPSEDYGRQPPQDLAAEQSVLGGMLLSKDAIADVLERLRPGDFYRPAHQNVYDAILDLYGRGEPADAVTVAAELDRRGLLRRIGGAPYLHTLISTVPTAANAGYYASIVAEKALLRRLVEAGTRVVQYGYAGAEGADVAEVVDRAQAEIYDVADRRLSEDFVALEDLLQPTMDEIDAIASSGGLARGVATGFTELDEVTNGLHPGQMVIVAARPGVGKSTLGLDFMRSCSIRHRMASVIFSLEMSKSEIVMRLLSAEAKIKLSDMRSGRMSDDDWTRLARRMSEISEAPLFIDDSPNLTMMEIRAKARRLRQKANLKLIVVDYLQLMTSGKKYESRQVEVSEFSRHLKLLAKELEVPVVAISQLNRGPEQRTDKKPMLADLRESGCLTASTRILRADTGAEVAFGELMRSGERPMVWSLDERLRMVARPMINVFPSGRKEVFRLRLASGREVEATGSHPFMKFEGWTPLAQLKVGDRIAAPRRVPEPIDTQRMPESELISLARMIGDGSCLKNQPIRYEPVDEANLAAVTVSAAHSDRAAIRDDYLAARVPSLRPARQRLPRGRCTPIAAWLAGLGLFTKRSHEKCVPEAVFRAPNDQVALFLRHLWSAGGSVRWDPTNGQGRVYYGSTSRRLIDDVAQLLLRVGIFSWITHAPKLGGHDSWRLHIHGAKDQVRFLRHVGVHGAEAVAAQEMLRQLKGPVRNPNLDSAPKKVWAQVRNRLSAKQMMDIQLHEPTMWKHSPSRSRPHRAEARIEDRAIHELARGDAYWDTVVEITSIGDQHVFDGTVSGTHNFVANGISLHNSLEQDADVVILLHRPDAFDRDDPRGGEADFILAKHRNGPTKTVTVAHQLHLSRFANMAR
Nature of the assay: DnaB intein splicing inhibitors, dose response, biochemical, cell-free fluorescence (AID 449749). It counts as functional.

In assay [5] the target is T3, Protein RecA (Mycobacterium tuberculosis, UniProt P9WHJ3).
T3 sequence (P9WHJ3 whole entry): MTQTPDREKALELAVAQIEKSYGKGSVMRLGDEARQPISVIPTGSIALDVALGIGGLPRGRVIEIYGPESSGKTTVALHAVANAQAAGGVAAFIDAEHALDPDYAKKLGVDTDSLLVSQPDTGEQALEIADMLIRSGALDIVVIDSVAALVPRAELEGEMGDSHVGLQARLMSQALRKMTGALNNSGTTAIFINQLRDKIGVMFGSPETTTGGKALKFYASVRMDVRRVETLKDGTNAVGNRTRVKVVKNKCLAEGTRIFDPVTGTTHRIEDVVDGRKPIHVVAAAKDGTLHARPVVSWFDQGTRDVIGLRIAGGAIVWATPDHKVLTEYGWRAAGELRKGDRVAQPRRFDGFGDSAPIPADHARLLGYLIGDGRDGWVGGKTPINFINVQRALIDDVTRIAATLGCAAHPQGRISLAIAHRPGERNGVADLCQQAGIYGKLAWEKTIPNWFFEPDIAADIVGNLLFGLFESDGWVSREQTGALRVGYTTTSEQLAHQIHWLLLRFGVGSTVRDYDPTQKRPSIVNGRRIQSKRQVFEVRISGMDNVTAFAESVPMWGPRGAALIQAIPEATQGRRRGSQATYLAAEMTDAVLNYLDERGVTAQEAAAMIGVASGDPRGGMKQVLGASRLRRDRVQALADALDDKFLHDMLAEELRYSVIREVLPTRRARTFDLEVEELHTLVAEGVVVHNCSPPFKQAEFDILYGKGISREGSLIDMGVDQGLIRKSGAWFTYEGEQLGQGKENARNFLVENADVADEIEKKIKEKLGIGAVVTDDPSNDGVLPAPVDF
Nature of the assay: Fluorescence Cell-Free Homogeneous Dose Retest to Identify Inhibitors of RecA-Intein Splicing Activity. [Related pubchem assays (depositor defined):AID2097, AID2223, AID489010, AID492950]. It counts as functional.

Assay [6] in a line: viability of HCT116 lacking mutant beta-catenin – cell-based, human colon tumor, dose response (AID 1045).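 Also: HCT116 colon tumor cells with beta catenin knocked out; cells exposed to compound for 60 hours.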 The assay is classed as functional.
The nature of assay [7]: viability of PTEN-deleted HCT116 cells – cell-based, HCT116 PTEN knockout, dose response (AID 1047).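 Also: HCT116 colon tumor cells with PTEN knocked out; cells exposed to compound for 60 hours before readout; potency for loss of cell viability measured by luminescence.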 It counts as functional.
The nature of assay [8]: Luminescence Cell-Based Dose Response HTS to Identify Activators of Luciferase Translation or Activity in H4 […] Cells. [Related pubchem assays: 1829 (Project Summary), 1814 (Primary HTS)]. It counts as functional.
The nature of assay [9]: Luminescence Cell-Based Dose Confirmation HTS to Identify Activators of 5'UTR Stem-Loop Driven Alpha-Synuclein mRNA Translation in H4 Neuroglioblastoma Cells. [Related pubchem assays: 1829 (Project Summary), 1814 (Primary HTS)]. It counts as functional.
Assay [10] addresses T4, Heat shock factor protein 1 (Mus musculus, UniProt P38532).
T4 sequence (P38532 whole entry): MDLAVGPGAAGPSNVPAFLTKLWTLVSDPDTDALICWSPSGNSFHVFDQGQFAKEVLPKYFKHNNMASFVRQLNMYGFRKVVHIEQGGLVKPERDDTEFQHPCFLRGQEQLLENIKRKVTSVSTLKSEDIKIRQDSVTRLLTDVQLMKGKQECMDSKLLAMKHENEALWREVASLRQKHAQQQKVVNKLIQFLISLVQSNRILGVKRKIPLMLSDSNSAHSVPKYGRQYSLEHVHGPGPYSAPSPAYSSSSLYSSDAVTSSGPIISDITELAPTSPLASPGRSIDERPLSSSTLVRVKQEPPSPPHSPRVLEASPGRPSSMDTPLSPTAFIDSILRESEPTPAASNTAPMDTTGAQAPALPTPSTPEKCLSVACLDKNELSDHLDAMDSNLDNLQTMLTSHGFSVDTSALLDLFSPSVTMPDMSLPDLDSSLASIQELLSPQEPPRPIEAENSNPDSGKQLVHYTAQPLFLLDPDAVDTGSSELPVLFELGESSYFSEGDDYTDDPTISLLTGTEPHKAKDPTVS
Nature of the assay: enhancement of HSF1-driven luciferase signal – cell-based, NIH3T3, luminescence, dose retest, confirmation (AID 435004).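 Also: stress induced by proteasome inhibitor MG132 added 30 min after compound; luciferase reporter driven by HSF1 response element in NIH3T3 cells; actives raise luminescence as potentiators of the MG132 stress response.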 The assay is classed as functional.

The target in assay [11] is Cytochrome P450 3A4 (Homo sapiens, UniProt P08684).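 Also: CYP3A4 tested as one member of a cytochrome P450 panel screen.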
Cytochrome P450 3A4, sequence (P08684 whole entry): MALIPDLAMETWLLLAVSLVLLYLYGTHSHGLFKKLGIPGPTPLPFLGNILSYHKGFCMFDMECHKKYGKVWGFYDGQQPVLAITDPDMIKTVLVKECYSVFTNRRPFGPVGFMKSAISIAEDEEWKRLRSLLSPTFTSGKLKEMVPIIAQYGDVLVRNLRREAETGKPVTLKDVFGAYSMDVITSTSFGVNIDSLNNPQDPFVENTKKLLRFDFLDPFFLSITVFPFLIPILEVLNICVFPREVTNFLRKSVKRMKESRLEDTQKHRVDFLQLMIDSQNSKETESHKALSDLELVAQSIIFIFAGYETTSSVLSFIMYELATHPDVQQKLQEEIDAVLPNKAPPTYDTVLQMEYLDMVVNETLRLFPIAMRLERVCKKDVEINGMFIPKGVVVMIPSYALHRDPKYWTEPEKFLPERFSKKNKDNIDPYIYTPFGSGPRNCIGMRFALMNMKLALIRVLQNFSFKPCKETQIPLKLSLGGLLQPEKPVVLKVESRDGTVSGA
In assay [12] the target is T5, Streptokinase A (Streptococcus pyogenes serotype M1, UniProt P10520).
T5 sequence (P10520 whole entry): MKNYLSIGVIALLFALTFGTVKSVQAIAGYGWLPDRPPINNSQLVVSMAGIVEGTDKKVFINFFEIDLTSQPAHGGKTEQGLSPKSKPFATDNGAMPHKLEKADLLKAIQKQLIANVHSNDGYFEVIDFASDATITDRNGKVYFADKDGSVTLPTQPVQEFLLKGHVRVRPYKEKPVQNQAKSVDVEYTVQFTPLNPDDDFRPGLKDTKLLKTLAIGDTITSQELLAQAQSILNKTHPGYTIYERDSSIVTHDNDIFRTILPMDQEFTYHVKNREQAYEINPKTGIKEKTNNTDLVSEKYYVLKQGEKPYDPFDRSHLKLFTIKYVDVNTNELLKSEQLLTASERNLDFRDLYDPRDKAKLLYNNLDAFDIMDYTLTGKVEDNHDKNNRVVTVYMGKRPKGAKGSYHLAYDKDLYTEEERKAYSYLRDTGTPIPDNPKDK
Nature of the assay: viability-normalized secreted streptokinase activity reduction – plasminogen activation absorbance, OD405, dose response (AID 1914).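 Also: secreted streptokinase activity via plasminogen activation per viability signal from cell pellet.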 It counts as functional, Streptococcus pyogenes M1 GAS.

Assay [13] has as its system Streptococcus sp. 'group A'. Nature of the assay: Streptococcus pyogenes SK(-)GAS viability under kanamycin – luminescence, BacTiterGlo, confirmation, counter-screen for streptokinase expression inhibitor project, dose response (AID 1900). The assay is classed as functional, organism-based. On the technique in general: A counterscreen serves to expose hits that act by an unwanted route or on another target.

Assay [14] deals with Streptococcus. Nature of the assay: GAS UMAA2166 growth inhibition – luminescence, BacTiterGlo, counter-screen for streptokinase expression inhibitor project, dose response (AID 1915).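 Also: potency for reduction of bacterial viability or growth.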 It counts as functional, organism-based.
Assay [15] concerns H4. Nature of the assay: Luminescence Cell-Based Dose Response HTS to Identify Activators of 5'UTR Stem-Loop Driven Prion Protein mRNA Translation in H4 Neuroglioblastoma Cells. [Related pubchem assays: 1829 (Project Summary), 1814 (Primary HTS)]. It counts as functional. The following applies: Homo sapiens.
Assay [16] concerns the target T4, Heat shock factor protein 1. Nature of the assay: decrease of HSF1-responsive luciferase luminescence – cell-based, NIH3T3, dose retest, confirmation (AID 2382).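 Also: NIH3T3 fibroblasts with HSF1-driven luciferase reporter stressed by proteasome inhibitor MG132; luminescence from HSF1-driven luciferase expression after 8 hours of MG132 stress.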 It counts as functional.

The source made the active and inactive calls.

Cytochrome P450 2C19, sequence (P33261 whole entry): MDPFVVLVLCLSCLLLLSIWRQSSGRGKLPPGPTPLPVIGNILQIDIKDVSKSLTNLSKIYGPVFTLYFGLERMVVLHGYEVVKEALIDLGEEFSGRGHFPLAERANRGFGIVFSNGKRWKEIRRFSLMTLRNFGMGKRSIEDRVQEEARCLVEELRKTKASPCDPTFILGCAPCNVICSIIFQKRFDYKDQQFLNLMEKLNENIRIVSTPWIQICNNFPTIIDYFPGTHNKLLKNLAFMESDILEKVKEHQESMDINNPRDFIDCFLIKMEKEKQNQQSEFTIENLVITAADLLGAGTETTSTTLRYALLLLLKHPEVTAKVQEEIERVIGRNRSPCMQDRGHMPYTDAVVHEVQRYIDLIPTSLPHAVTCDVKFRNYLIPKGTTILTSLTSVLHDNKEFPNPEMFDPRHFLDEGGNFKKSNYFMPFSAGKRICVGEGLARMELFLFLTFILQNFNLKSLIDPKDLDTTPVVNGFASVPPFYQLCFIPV

What is called AC50 is the concentration at which the activity in the assay is half-maximal. Turning to `Cc1nn(C)cc1C(=O)NN=C(S)Nc1ccccc1`, the AC50 in assay [1] was 22.4 µM (inconclusive); in assay [2], 15.8 µM (inconclusive); in assay [3] it was 39.8 µM (inconclusive).
On the same counts, the results for `COc1ccc(NS(=O)(=O)c2ccc(NC(=O)c3cnn4c(C(F)F)cc(-c5ccc(C)cc5)nc34)cc2)cc1` are 2.24 µM (inconclusive), 0.891 µM (inconclusive) and 3.55 µM (inconclusive).
In general, EC50 refers to the concentration needed to bring the measured effect to its halfway point. As to `Cc1ccc(N/C([S-])=C(/C(=O)c2ccc(F)cc2)[n+]2ccccc2)cc1`, in assay [4], the AC50 was > 380 µM (inactive). In [5], the EC50 is 69.7 µM (active).
On to `Cc1ccc(-c2csc(NC(=O)CSc3n[nH]c4c5ccccc5nc-4n3)n2)cc1`, for which the EC50 in assay [6] was 21.9 µM (active); in [7] it was 24.1 µM (active).
For the molecule `Cc1ccc(Cn2ccnc2C(=O)Nc2ccccc2)cc1`, the EC50 is 58 µM (active) in assay [8] and 30.4 µM (active) in assay [9].
On to `CCCn1c(SCc2nc(O)c3c(C)c(C)sc3n2)nc2ccccc2c1=O`, for which the EC50 was 12.5 µM (active) in assay [6], 11.8 µM (active) in assay [7] and 71.9 µM (active) in [10].
On to `COc1cccc(-c2cc(C(F)(F)F)nc(N3CCCCC3)n2)c1`, for which the results for the AC50 in [11] and in assay [3] were 20 µM (inconclusive) and 0.355 µM (inconclusive), respectively. Also, the EC50 in [12] is 4.92 µM (active); in assay [13], 5.13 µM (active); in assay [14], 19 µM (active).
`O=C(O)c1ccc(Cn2cnc3scc(-c4ccccc4)c3c2=O)cc1`: the EC50 was > 120 µM (not active) in assay [8], 9.7 µM (active) in [9] and > 120 µM (not active) in assay [15].
As for `Cn1c(SCC(=O)N2CCCCC2)nc2c3ccccc3nc-2c1O`, the EC50 in assay [6] is 35.8 µM (active); in assay [7], 22.3 µM (active).
On to `Cc1ccc(C(C(=O)NC2CCCC2)N(C(=O)Cc2cccs2)c2ccc3c(c2)OCCO3)cc1` (stereo not given), for which the EC50 in assay [6] was 62.8 µM (active); in assay [7], 46.5 µM (active).
Turning to `COc1ccc(C(CCN(Cc2ccc(OC)c(OC)c2)C(=O)CCl)c2ccccc2)cc1` (stereo not given), the concentration giving a half-maximal response (EC50) is 3 µM (active) in assay [6], 3.07 µM (active) in assay [7], 0.269 µM (active) in assay [5] and 3.19 µM (active) in [16]. Besides, the half-maximal activity concentration (AC50) in assay [4] was 1.12 µM (active).
As for `Cc1cccc(N=Nc2c[nH]nc2-c2ccco2)c1`, the figures for the EC50 in assay [8], in assay [9] and in assay [15] were 14.7 µM (active), 29.5 µM (active) and 73.5 µM (active), respectively.
Take `COCCn1c(=O)c(-c2cc(F)cc(F)c2)nc2cnc(OC)nc21`: the AC50 in [1] and in assay [3] was 39.8 µM (inconclusive) each time.
Take `Cc1cc(C)nc(Sc2ccc3nnnn3n2)n1`: the values for the EC50 in [8], in assay [9] and in assay [15] were 22.5 µM (active), 24.7 µM (active) and 11.3 µM (active), respectively.
Consider `Cc1ccccc1N(C(=O)Cc1cccs1)C(C(=O)NCC1CCCO1)c1cccnc1` (stereo not given), for which the figures for the AC50 in [11], in assay [1] and in assay [3] were 1 µM (inconclusive), 28.2 µM (inconclusive) and 22.4 µM (inconclusive), respectively.
Take `Cc1ccc(NC2=C(C(=O)Nc3c(C)cc(C)cc3C)C(=N)C(C(=O)Nc3ccc(OC(F)(F)F)cc3)S2)cc1` (stereo not given): the EC50 was 42.8 µM (active) in [6] and 40 µM (active) in assay [7].
For the molecule `CCOC(=O)C/C(C)=N/NC(=O)COc1ccccc1C`, the concentration at half-maximal activity (AC50) in [4] was 4.39 µM (active). The half-maximal effective concentration (EC50) in assay [5] was 2.36 µM (active).
On to `NC(=O)CI` [IODOACETAMIDE], for which the results for the half-maximal activity concentration (AC50) in assay [1], in assay [2] and in assay [3] were 39.8 µM (inconclusive), 31.6 µM (inconclusive) and 39.8 µM (inconclusive), respectively.
